Assay results reported in ChEMBL document CHEMBL1201862, “PubChem BioAssay data set” (2004).
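Compound exposure: 48 hours, 5 concentrations, 96-well plates. GI50: concentration for 50% inhibition of growth.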 Active and inactive are the calls of the source. Rule as the data show it: active = GI50 up to about 1.1 µM and inactive = higher.

Tests used:
Assay in all cases: NCI tumour cell line growth inhibition, 48 h
[1] = tested on: SK-OV-3
[2] = tested on: RXF 393
[3] = tested on: A549
[4] = tested on: Malme-3M
[5] = tested on: SK-MEL-2
[6] = tested on: KM12
[7] = tested on: MDA-N
[8] = tested on: OVCAR-3
[9] = tested on: CCRF-CEM
[10] = tested on: SK-MEL-28
[11] = tested on: BT-549
[12] = tested on: SF-268
[13] = tested on: OVCAR-8
[14] = tested on: SF-295
[15] = tested on: T47D
[16] = tested on: MDA-MB-231
[17] = tested on: HCC 2998
[18] = tested on: 786-0
[19] = tested on: HCT-15
[20] = tested on: A498
[21] = tested on: SW-620
[22] = tested on: NCI/ADR-RES
[23] = tested on: HCT-116
[24] = tested on: SN12C
[25] = tested on: IGROV-1
[26] = tested on: SNB-19
[27] = tested on: OVCAR-5
[28] = tested on: U-251
[29] = tested on: K562
[30] = tested on: M14
[31] = tested on: SNB-75
[32] = tested on: LOX IMVI
[33] = tested on: DU-145
[34] = tested on: NCI-H23
[35] = tested on: UO-31
[36] = tested on: HOP-92
[37] = tested on: PC-3
[38] = tested on: UACC-257
[39] = tested on: Hs-578T
[40] = tested on: OVCAR-4
[41] = tested on: SR
[42] = tested on: HT-29
[43] = tested on: SK-MEL-5
[44] = tested on: MDA-MB-435
[45] = tested on: COLO 205
[46] = tested on: NCI-H226
[47] = tested on: EKVX
[48] = tested on: NCI-H522
[49] = tested on: RPMI-8226
[50] = tested on: UACC-62
[51] = tested on: HL-60
[52] = tested on: MCF7
[53] = tested on: HOP-62
[54] = tested on: NCI-H460
[55] = tested on: CAKI-1
[56] = tested on: MOLT-4
[57] = tested on: TK-10
[58] = tested on: SF-539
[59] = tested on: ACHN

Compound: NC1=NC(NCC2(CO)CCC2)=CC(OCC2(CO)CCC2)N1 (centres undefined)
- GI50 [1]: > 100 µM (inactive)
- GI50 [2]: > 100 µM (inactive)
- GI50 [3]: > 100 µM (inactive)
- GI50 [4]: > 100 µM (inactive)
- GI50 [5]: > 100 µM (inactive)
- GI50 [6]: > 100 µM (inactive)
- GI50 [7]: > 100 µM (inactive)
- GI50 [8]: > 100 µM (inactive)
- GI50 [9]: > 100 µM (inactive)
- GI50 [10]: > 100 µM (inactive)
- GI50 [11]: > 100 µM (inactive)
- GI50 [12]: > 100 µM (inactive)
- GI50 [13]: > 100 µM (inactive)
- GI50 [14]: > 100 µM (inactive)
- GI50 [15]: 62.2 µM (inactive)
- GI50 [16]: > 100 µM (inactive)
- GI50 [17]: > 100 µM (inactive)
- GI50 [18]: > 100 µM (inactive)
- GI50 [19]: > 100 µM
- GI50 [20]: > 100 µM (inactive)
- GI50 [21]: > 100 µM (inactive)
- GI50 [22]: > 100 µM (inactive)
- GI50 [23]: > 100 µM (inactive)
- GI50 [24]: > 100 µM (inactive)
- GI50 [25]: > 100 µM (inactive)
- GI50 [26]: > 100 µM (inactive)
- GI50 [27]: > 100 µM (inactive)
- GI50 [28]: > 100 µM (inactive)
- GI50 [29]: 44.8 µM (inactive)
- GI50 [30]: > 100 µM (inactive)
- GI50 [31]: > 100 µM (inactive)
- GI50 [32]: > 100 µM (inactive)
- GI50 [33]: > 100 µM (inactive)
- GI50 [34]: 26.2 µM (inactive)
- GI50 [35]: > 100 µM (inactive)
- GI50 [36]: > 100 µM (inactive)
- GI50 [37]: > 100 µM (inactive)
- GI50 [38]: > 100 µM (inactive)
- GI50 [39]: > 100 µM (inactive)
- GI50 [40]: > 100 µM (inactive)
- GI50 [41]: 82.8 µM (inactive)
- GI50 [42]: > 100 µM (inactive)
- GI50 [43]: 79.3 µM (inactive)
- GI50 [44]: > 100 µM (inactive)
- GI50 [45]: > 100 µM (inactive)
- GI50 [46]: > 100 µM (inactive)
- GI50 [47]: > 100 µM (inactive)
- GI50 [48]: > 100 µM (inactive)
- GI50 [49]: > 100 µM (inactive)
- GI50 [50]: > 100 µM (inactive)
- GI50 [51]: 78.2 µM (inactive)
- GI50 [52]: > 100 µM (inactive)
- GI50 [53]: > 100 µM (inactive)
- GI50 [54]: > 100 µM (inactive)
- GI50 [55]: > 100 µM (inactive)
- GI50 [56]: 65.9 µM (inactive)

Compound: Nc1nc(S)c2c(N)n[nH]c2c1C(=O)Nc1ccc(Cl)cc1
- GI50 [1]: > 100 µM (inactive)
- GI50 [2]: > 100 µM (inactive)
- GI50 [3]: > 100 µM (inactive)
- GI50 [4]: > 100 µM (inactive)
- GI50 [5]: > 100 µM (inactive)
- GI50 [6]: 21.4 µM (inactive)
- GI50 [7]: 89.7 µM (inactive)
- GI50 [8]: > 100 µM (inactive)
- GI50 [10]: > 100 µM (inactive)
- GI50 [11]: > 100 µM (inactive)
- GI50 [12]: > 100 µM (inactive)
- GI50 [13]: 32.1 µM (inactive)
- GI50 [15]: 44.6 µM (inactive)
- GI50 [16]: > 100 µM (inactive)
- GI50 [17]: > 100 µM (inactive)
- GI50 [18]: 45.9 µM (inactive)
- GI50 [19]: 74.8 µM
- GI50 [20]: > 100 µM (inactive)
- GI50 [21]: 29.6 µM (inactive)
- GI50 [22]: > 100 µM (inactive)
- GI50 [23]: > 100 µM (inactive)
- GI50 [24]: > 100 µM (inactive)
- GI50 [25]: > 100 µM (inactive)
- GI50 [26]: > 100 µM (inactive)
- GI50 [27]: > 100 µM (inactive)
- GI50 [28]: > 100 µM (inactive)
- GI50 [29]: 91.6 µM (inactive)
- GI50 [30]: 45.4 µM (inactive)
- GI50 [31]: > 100 µM (inactive)
- GI50 [32]: 5.41 µM (inactive)
- GI50 [33]: 47 µM (inactive)
- GI50 [35]: 74 µM (inactive)
- GI50 [36]: > 100 µM (inactive)
- GI50 [37]: > 100 µM (inactive)
- GI50 [38]: 77.1 µM (inactive)
- GI50 [39]: > 100 µM (inactive)
- GI50 [40]: 64.4 µM (inactive)
- GI50 [41]: 24.3 µM (inactive)
- GI50 [42]: > 100 µM (inactive)
- GI50 [43]: > 100 µM (inactive)
- GI50 [44]: 84.5 µM (inactive)
- GI50 [45]: > 100 µM (inactive)
- GI50 [46]: > 100 µM (inactive)
- GI50 [57]: > 100 µM (inactive)
- GI50 [47]: > 100 µM (inactive)
- GI50 [48]: 96.4 µM (inactive)
- GI50 [58]: > 100 µM (inactive)
- GI50 [49]: > 100 µM (inactive)
- GI50 [50]: 18.4 µM (inactive)
- GI50 [51]: 21.2 µM (inactive)
- GI50 [52]: > 100 µM (inactive)
- GI50 [54]: 54.1 µM (inactive)
- GI50 [55]: 60.3 µM (inactive)
- GI50 [56]: > 100 µM (inactive)

Compound: CC(C)(C)OC(=O)NC(Cc1c[nH]cn1)C(=O)N1CCCC1C(N)=O (centres undefined)
- GI50 [1]: > 100 µM (inactive)
- GI50 [2]: 2.17 µM (inactive)
- GI50 [3]: > 100 µM (inactive)
- GI50 [59]: > 100 µM (inactive)
- GI50 [4]: > 100 µM (inactive)
- GI50 [5]: > 100 µM (inactive)
- GI50 [6]: > 100 µM (inactive)
- GI50 [7]: > 100 µM (inactive)
- GI50 [8]: > 100 µM (inactive)
- GI50 [9]: > 100 µM (inactive)
- GI50 [10]: > 100 µM (inactive)
- GI50 [11]: > 100 µM (inactive)
- GI50 [12]: > 100 µM (inactive)
- GI50 [13]: > 100 µM (inactive)
- GI50 [14]: > 100 µM (inactive)
- GI50 [15]: > 100 µM (inactive)
- GI50 [16]: > 100 µM (inactive)
- GI50 [17]: > 100 µM (inactive)
- GI50 [18]: > 100 µM (inactive)
- GI50 [19]: > 100 µM
- GI50 [20]: > 100 µM (inactive)
- GI50 [21]: > 100 µM (inactive)
- GI50 [22]: > 100 µM (inactive)
- GI50 [23]: > 100 µM (inactive)
- GI50 [24]: > 100 µM (inactive)
- GI50 [25]: > 100 µM (inactive)
- GI50 [26]: > 100 µM (inactive)
- GI50 [27]: > 100 µM (inactive)
- GI50 [28]: > 100 µM (inactive)
- GI50 [29]: > 100 µM (inactive)
- GI50 [30]: > 100 µM (inactive)
- GI50 [31]: > 100 µM (inactive)
- GI50 [32]: > 100 µM (inactive)
- GI50 [33]: > 100 µM (inactive)
- GI50 [34]: > 100 µM (inactive)
- GI50 [35]: > 100 µM (inactive)
- GI50 [36]: > 100 µM (inactive)
- GI50 [37]: > 100 µM (inactive)
- GI50 [38]: > 100 µM (inactive)
- GI50 [39]: > 100 µM (inactive)
- GI50 [40]: > 100 µM (inactive)
- GI50 [41]: > 100 µM (inactive)
- GI50 [42]: > 100 µM (inactive)
- GI50 [43]: > 100 µM (inactive)
- GI50 [44]: > 100 µM (inactive)
- GI50 [45]: > 100 µM (inactive)
- GI50 [46]: 33.1 µM (inactive)
- GI50 [57]: > 100 µM (inactive)
- GI50 [47]: > 100 µM (inactive)
- GI50 [48]: > 100 µM (inactive)
- GI50 [58]: > 100 µM (inactive)
- GI50 [49]: > 100 µM (inactive)
- GI50 [50]: > 100 µM (inactive)
- GI50 [51]: > 100 µM (inactive)
- GI50 [52]: > 100 µM (inactive)
- GI50 [53]: > 100 µM (inactive)
- GI50 [54]: > 100 µM (inactive)
- GI50 [55]: > 100 µM (inactive)
- GI50 [56]: > 100 µM (inactive)
